Values quoted from earlier work, collected in patent publication US20180256462A1, “ALCOHOL-BASED SKIN SANITIZER HAVING MICROBICIDAL PROPERTIES” (DEB IP LIMITED, priority 2015, published 2018).
Read-outs that look alike come from different tables or passages of the source. One block for each compound: values may come before it.

Experiments:
Lactobacillus fermentum = details: live cells of Lactobacillus fermentum, flow cytometry
Staphylococcus aureus = details: low concentrations (0.5 to 2 mM), disk diffusion
Microsporum gypseum [1] = system: Microsporum gypseum
Microsporum gypseum [2] = details: 10% in Vaseline petroleum jelly, topical daily for 3 weeks; for skin lesion scoring: first week of application; for histopathologic examination of skin tissues (hyperkeratosis, inflammatory cell infiltration): versus positive control

SMILES: CC(C)=CCC/C(C)=C/CC1CCCC1=O (stereo not drawn) [apritone]
intracellular accumulation of ethidium bromide (Lactobacillus fermentum): promoted the intracellular accumulation of the membrane-impermeant nucleic acid stain ethidium bromide | susceptibility of Staphylococcus aureus to ciprofloxacin, clindamycin, erythromycin, gentamicin, tetracycline, and vancomycin (Staphylococcus aureus): enhanced the susceptibility of Staphylococcus aureus

SMILES: CC(C)=CCCC(C)=CCCC(C)=CCO [farnesol]
intracellular accumulation of ethidium bromide (Lactobacillus fermentum): promoted the intracellular accumulation of the membrane-impermeant nucleic acid stain ethidium bromide | sensitization of Escherichia coli to polymyxin B (Escherichia coli): sensitized Escherichia coli to polymyxin B

SMILES: CC(C)=CCC[C@](C)(O)C1CC=C(C)CC1 (stereo partly drawn) [bisabolol]
intracellular accumulation of ethidium bromide (Lactobacillus fermentum): promoted the intracellular accumulation of the membrane-impermeant nucleic acid stain ethidium bromide | susceptibility of Staphylococcus aureus to ciprofloxacin, clindamycin, erythromycin, gentamicin, tetracycline, and vancomycin (Staphylococcus aureus): enhanced the susceptibility of Staphylococcus aureus

Further lines, with some results ahead:

MIC (Microsporum gypseum [1]; positive control): 4 to 16 µg/mL
SMILES: Clc1ccc(COC(Cn2ccnc2)c2ccc(Cl)cc2Cl)cc1 (stereo not drawn) [econazole]

MIC (Microsporum gypseum [1]): 0.01-0.03%
SMILES: C=CCc1ccc(O)c(OC)c1 [eugenol]
hair culture test (Microsporum gypseum [2]): did not | skin lesion scoring (Microsporum gypseum [2]): clinically effective at improving the lesion during the first week of application | histopathologic examination of skin tissues (hyperkeratosis, inflammatory cell infiltration) (Microsporum gypseum [2]): lower degree of hyperkeratosis and inflammatory cell infiltration than the positive control

MIC (Microsporum gypseum [1]): 0.5-2%
SMILES: C=CC(C)(O)CCC=C(C)CCC=C(C)C (mixture of isomers) [nerolidol, 3,7,11-trimethyl-1,6,10-dodecatrien-3-ol]
hair culture test (Microsporum gypseum [2]): improved the skin lesions infected by M. gypseum | skin lesion scoring (Microsporum gypseum [2]): clinically effective at improving the lesion during the first week of application | histopathologic examination of skin tissues (hyperkeratosis, inflammatory cell infiltration) (Microsporum gypseum [2]): lower degree of hyperkeratosis and inflammatory cell infiltration than the positive control | intracellular accumulation of ethidium bromide (Lactobacillus fermentum): promoted the intracellular accumulation of the membrane-impermeant nucleic acid stain ethidium bromide | susceptibility of Staphylococcus aureus to ciprofloxacin, clindamycin, erythromycin, gentamicin, tetracycline, and vancomycin (Staphylococcus aureus): enhanced the susceptibility of Staphylococcus aureus | sensitization of Escherichia coli to polymyxin B (Escherichia coli): sensitized Escherichia coli to polymyxin B
